This note sets out measurements from patent US11499978B2, “Method for measuring quality of therapeutic cell through real-time glutathione measurement” (CELL2IN, INC., priority 2017, dated 2022).

The subject of assay [1] is hUC-MSCs. Nature of the assay: FreSH-Tracer-based glutathione regeneration capacity (GRC) in hUC-MSCs. On the set-up: species or system human. The following applies: hUC-MSCs subcultured three times with AA2G 250 μg/mL; low concentration of diamide; compared with naive cell group. The procedure: GRC refers to a value obtained by real-time monitoring of FR after living cells are treated with an oxidizing agent, as calculated by dividing a value obtained by subtracting AUC of a group treated with 0.1-100 mM N-ethylmaleimide (NEM) from FR AUC of an oxidizing agent (diamide, H2O2, etc.)-treated group by a value obtained by subtracting the AUC of NEM-treated group from AUC of the untreated control, and multiplying the resulting value by 100. The FR of the NEM-treated group is a value for increasing the sensitivity of a GRC value by treating it as the blank value of the FR of the cells of interest. […] To remove the MitoFreSH-Tracer from the medium before measurement, the medium was exchanged with fresh 10 mM HEPES-containing HBSS(Hanks' Balanced Salt Solution), and a fluorescence image was obtained using a confocal imaging system, Operetta. By comparing GSH levels quantified from control cells not treated with RSL3 or control cells before treated with RSL3, the distribution of GSH expression-changed cells was calculated. Based on the point where the distribution histogram is divided into two peaks, the cells were divided into GSH^High cells (right peak) and GSH^Low cells (left peak), and then a ratio of corresponding cells was expressed as a percentage (%). […]

For assay [2], the system named is hUC-MSCs. Nature of the assay: SDF1α- and PDGF-AA-induced migration capacity of hUC-MSCs. The conditions noted are these: 125 or 250 μg/mL AA2G for three days, n=3. Format: cell-based, human. The procedure:
The inventors observed an effect of the material on stem cells by treating each stem cells with a material for enhancing a glutathione evaluation parameter. When hUC-MSCs were subcultured in a L-AA2G-containing medium, CFU-F, migration capacity, and an anti-inflammatory effect were observed. A CFU-F assay (n=3) was performed by treating hUC-MSCs with 125 or 250 μg/mL of AA2G for three days. As shown in FIGS. 16A and 16B, it was confirmed that, when AA2G was treated, CFU-F increased. In addition, as hUC-MSCs were treated with 125 or 250 μg/mL of AA2G for three days, PDGF-AA-induced migration capacity (n=3) was analyzed. As shown in FIGS. 17A and 17B, it was confirmed that the migration capacity was increased by AA2G treatment. In addition, the reduction in T cell proliferation, the reduction in T cell differentiation, and the promotion of Treg cell differentiation were observed by treating hUC-MSCs with 125 or 250 μg/mL of AA2G for three days. […] Meanwhile, hUC-MSCs were cultured with a glutathione precursor such as γ-glutamyl cysteine (GGC, 0.1, 0.25, and 0.5 mM). […] In addition, SDF1α and PDGF-AA-induced migration capacities (n=3) were analyzed for hUC-MSCs without treatment with GGC, and SDF1α and PDGF-AA-induced migration abilities (n=3) were analyzed by treating hUC-MSCs with the increasing concentrations of GGC. […]

In the case of `O=C1O[C@H]([C@@H](O)CO)C(O)=C1O[C@H]1O[C@H](CO)[C@@H](O)[C@H](O)[C@H]1O` [AA2G, ascorbic acid 2-glucoside], the “FreSH-Tracer-based GRC” value in the assay with hUC-MSCs [1] was “increased”. For the same molecule, the PDGF-AA-induced migration capacity result in the assay with hUC-MSCs [2] is listed as “increased”.
